# Measured values taken from patent US20040234992A1, “Method of detection of conformational change in a nucleic acid duplex by treatment with oxidising or reactive agent as a result of exposure to environmental or chemical conditions” (priority 2001, published 2004).
# Experiments:
# calf thymus DNA (Z-DNA) = assay: Permanganate oxidation of calf thymus Z-DNA (NaCl) incubated with intercalators; settings: for Level of oxidation (induced by chemical) Net A420 nm: Z-DNA (NaCl), Expt minus Control, 2 min-1 h; for Level of oxidation (induced by chemical) Net A420 nm / ΔA420 nm (2 min-1 h) (Expt): 35° C.; for ΔA420 nm (2 min-1 h) (Expt): calf thymus DNA + NaCl + intercalator 6.3 nmol + KMnO4
# Method: The intercalator (10 μl, […]) was incubated with the solution containing calf thymus DNA (5 μl, 8.27 μg) and NaCl (600 μl, 5M NaCl solution) in water (355 μl) at 40° C. for 1 h. The reaction mixture was treated with KMnO4 (30μ of 10 mM solution) and maintained at 35° C. for 60 min. The absorbance at 420 nm was obtained at 2 min and 60 min by Cary 300 spectrophotometer (Varian Inc.). The level of oxidation was based on the absorbance at A420 nm of the experiment and control (without DNA) experiments as described in the experimental section. Four intercalators (with published data on unwinding degree) were used in the experiment: doxorubicin (10°), daunomycin (12°), 9-aminoacridine (17°) and ethidium bromide (28°); and
# Due to limited information about the degree of unwinding of intercalators, only four intercalators with different degree of unwinding were employed in the experiment: doxorubicin (10°), daunorubicin (12°), 9-aminoacridine (17°) and ethidium bromide (28°). The Z-DNA samples were mixed in equal amounts of intercalators and the reactions were carried out under identical conditions. Calf thymus DNA (5 μl, 8.27 μg) was incubated with NaCl (600 μl, SM NaCl solution), the DNA binding agent or intercalator (10 μl, 6.3 nmol) in distilled H2O (355 μl). 4 non-sequence specific intercalators were used in the model study: doxorubicin, daunorubicin, 9-aminoacridine and ethidium bromide. The reaction mixture was gently mixed on shaker at 40° C. for 1 h. After incubation time, KMnO4 (30 μl) was added to the reaction mixture and the resulting mixture was transferred to the quartz cuvette and the absorbance (420 nm) was obtained at 35° C. for 2- and 60-min time-points. The level of oxidation induced by intercalator is based on the net absorbance and calculated as follows:
# Net A420 nm=[A420 nm of the Expt (60 min)−A420 nm of the Expt (2 min)]−[A420 nm of the Control (60 min)−A420 nm of the Control (2 min)]
# Where Net A420 nm represents the level of oxidation of the DNA-chemical adduct.
# The Expt=calf thymus DNA+NaCl+DNA binding agent+KMnO4
# The Control=DNA binding agent+KMnO4.
# The control experiment (without DNA binding agent) was treated under identical conditions as described above.
# duplex DNA = settings: published data; cited from earlier work
SMILES,Level of oxidation (induced by chemical) Net A420 nm (calf thymus DNA (Z-DNA)) [arbitrary unit],ΔA420 nm (2 min-1 h) (Expt) (calf thymus DNA (Z-DNA)),degree of unwinding (duplex DNA) [°],"rate of permanganate oxidation (kinetic data) (calf thymus DNA (Z-DNA); Z-DNA incubated with intercalator, ranking among the four intercalators)"
Nc1c2ccccc2nc2ccccc12 [9-aminoacridine],0.0726,0.1327,17,
COc1cccc2c1C(=O)c1c(O)c3c(c(O)c1C2=O)C[C@@](O)(C(=O)CO)C[C@@H]3O[C@H]1C[C@H](N)[C@H](O)[C@H](C)O1 [doxorubicin],0.1029,0.1427,10,fastest
COc1cccc2c1C(=O)c1c(O)c3c(c(O)c1C2=O)C[C@@](O)(C(C)=O)C[C@@H]3O[C@H]1C[C@H](N)[C@H](O)[C@H](C)O1 [daunorubicin],0.0957,0.1670,12,
